Biological target: T1, SOS1 protein (Homo sapiens, UniProt Q07889)
T1 sequence (Q07889 1-1333): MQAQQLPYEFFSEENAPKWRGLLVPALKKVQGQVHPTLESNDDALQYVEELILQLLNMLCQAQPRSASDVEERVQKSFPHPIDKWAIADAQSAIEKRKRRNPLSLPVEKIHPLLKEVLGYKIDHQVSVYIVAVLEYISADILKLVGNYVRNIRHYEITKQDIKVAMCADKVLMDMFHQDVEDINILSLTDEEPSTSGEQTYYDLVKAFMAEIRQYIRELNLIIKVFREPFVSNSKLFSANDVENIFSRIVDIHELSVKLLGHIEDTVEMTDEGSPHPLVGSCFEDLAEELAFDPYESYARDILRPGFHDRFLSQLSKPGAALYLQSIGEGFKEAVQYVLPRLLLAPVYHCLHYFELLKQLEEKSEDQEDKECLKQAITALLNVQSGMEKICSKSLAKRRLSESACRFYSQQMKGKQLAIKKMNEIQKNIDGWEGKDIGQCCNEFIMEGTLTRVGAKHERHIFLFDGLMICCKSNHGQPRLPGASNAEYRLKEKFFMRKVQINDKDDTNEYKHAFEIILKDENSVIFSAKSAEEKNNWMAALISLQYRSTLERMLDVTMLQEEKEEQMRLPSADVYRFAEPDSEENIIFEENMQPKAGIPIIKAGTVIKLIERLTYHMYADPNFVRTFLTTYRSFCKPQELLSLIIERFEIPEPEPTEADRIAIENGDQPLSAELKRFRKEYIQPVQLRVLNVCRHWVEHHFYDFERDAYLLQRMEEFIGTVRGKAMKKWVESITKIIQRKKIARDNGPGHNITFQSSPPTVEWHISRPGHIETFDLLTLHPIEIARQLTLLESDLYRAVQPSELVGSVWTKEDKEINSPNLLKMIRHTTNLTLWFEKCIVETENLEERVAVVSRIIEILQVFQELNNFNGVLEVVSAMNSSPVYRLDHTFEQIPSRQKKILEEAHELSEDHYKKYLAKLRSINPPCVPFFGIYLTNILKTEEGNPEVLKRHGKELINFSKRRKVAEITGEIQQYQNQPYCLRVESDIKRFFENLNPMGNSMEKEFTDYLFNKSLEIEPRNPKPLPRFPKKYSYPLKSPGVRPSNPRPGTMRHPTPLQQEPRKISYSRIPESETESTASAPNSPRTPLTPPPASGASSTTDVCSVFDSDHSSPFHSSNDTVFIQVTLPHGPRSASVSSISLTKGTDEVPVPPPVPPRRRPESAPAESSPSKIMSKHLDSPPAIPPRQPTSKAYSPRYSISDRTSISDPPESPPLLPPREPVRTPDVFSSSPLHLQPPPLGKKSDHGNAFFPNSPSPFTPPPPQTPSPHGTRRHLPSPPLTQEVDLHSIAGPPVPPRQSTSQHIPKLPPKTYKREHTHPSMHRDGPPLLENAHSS
Test: SOS1 degradation assay (Western blot) in NCI-H358 cells
Format: cell-based
Settings: NCI-H358 (KRAS G12C), 24 h
Method: The specific procedures were as follows:
0.95 mL of cells were seeded into each well of a 24-well cell culture plate to achieve a cell density of 5×10^5 cells/well; the cell plate was incubated in an incubator at 37° C. with 5% CO2 overnight. Then 50 μL of the compound solution after dilution was added to each of the wells with the corresponding cells, so that the final concentration of the compound was in a range of 0.03-3000 nM.
After dosing, the cell plate was incubated in an incubator at 37° C. with 5% CO2 for 24 h. […] After the plate was left to stand on ice for 30 min, the protein lysate in each well was transferred to a 1.5 mL centrifuge tube and centrifuged at 15000 g for 20 min at 4° C. The cell lysate supernatant after centrifugation was cryopreserved at −80° C. for testing and was used for determining the degradation level of the SOS1 protein by a WB method. The concentration of total protein in the cell lysate supernatant was determined using the BCA Protein Quantification Kit (Tiangen, PA115-02).
The concentration of total protein in the cell lysate was determined by BCA. The total protein was adjusted to 0.5 μg/μL with PBS and 5×SDS- PAGE protein loading buffer (Beyotime, P001L), incubated in a water bath at 100° C. for 15 min, incubated in an ice bath on ice for 5 min, centrifuged at 14000 g for 1 min at 4° C., and mixed well as a loading sample for WB. Protein electrophoresis was performed on a precast gel (KeyGEN, KGMG010W15) with a loading volume of 10 μL (total protein: 5 μg) using a Tris-MOPS-SDS running solution (Adamas, P1598253) at a constant voltage of 120 V for 55 min. After the electrophoresis, the protein on the gel strip was transferred to a PVDF membrane at a constant current of 250 mA for 65 min. After the membrane transfer, the membrane was incubated in 1× QuickBlock blocking buffer (Beyotime, P0235) for 30 min at room temperature. […] The protein map was subjected to gray value analysis by the chemiluminescence imaging system from Clinx. […] Then the degradation rate was calculated by comparing the gray correction value with the gray correction value of the control group. Then nonlinear curve fitting was performed by GraphPad Prism 8 in the logarithmic concentration-inhibition rate to obtain the DC50 and Dmax values of the compounds.

DC50 [nM]	Dmax [%]	Structure (SMILES)
< 50	80 to 100	COc1cc2nc(C)nc(N[C@H](C)c3cc(-c4c(Cl)cccc4CN(C)C)cs3)c2cc1[C@H]1CC[C@H](C(=O)N2CCN(CC3CCC4(CC3)CCN(C(=O)c3ccc(Cl)c(N5CCC(=O)NC5=O)c3)CC4)CC2)CC1 [Example 1, 1-(2-chloro-5-(9-((4-((1R,4R)-4-(4-(((R)-1-(4-(2-chloro-6-((dimethylamino)methyl)phenyl)thien-2-yl)ethyl)amino)-7-methoxy-2-methylquinazolin-6-yl)cyclohexane-1-carbonyl)piperazin-1-yl)methyl)-3-azaspiro[5.5]undecane-3-carbonyl)phenyl)dihydropyrimidine-2,4(1H,3H)-dione]
< 50	80 to 100	COc1cc2nc(C)nc(N[C@H](C)c3cc(-c4c(Cl)cccc4CN(C)C)cs3)c2cc1[C@H]1CC[C@H](C(=O)N2CCC(CCOCC3CCN(C(=O)c4ccc(Cl)c(N5CCC(=O)NC5=O)c4)CC3)CC2)CC1 [Example 5, 1-(2-chloro-5-(4-((2-(1-((1R,4R)-4-(4-(((R)-1-(4-(2-chloro-6-((dimethylamino)methyl)phenyl)thien-2-yl)ethyl)amino)-7-methoxy-2-methylquinazolin-6-yl)cyclohexane-1-carbonyl)piperidin-4-yl)ethoxy)methyl)piperidine-1-carbonyl)phenyl)dihydropyrimidine-2,4(1H,3H)-dione]
